Data taken from patent publication US9682991B2, “Tricyclic compounds for use as kinase inhibitors” (FUNDACIÓN CENTRO NACIONAL DE INVESTIGACIONES ONCOLOGICAS …, priority 2009, dated 2017).
Like-named read-outs stand apart in the source and are kept apart here.

Legend:
DU145 cells (prostate) = experiment: MTT in vitro cell proliferation / combination assay, DU145; type: cell-based; conditions: Homo sapiens, DU-145; DU145, chemotherapeutic alone; read-out: Chemoth EC50
Protocol: (§1) Proliferation assays (MTT) were performed as described in: • “Chemical interrogation of FOXO3a nuclear translocation identifies potent and selective inhibitors of phosphoinositide 3-kinases”, W. Link, J. Oyarzabal, B. G. Serelde, M. I. Albarran, O. Rabal, A. Cebria, P. Alfonso, J. Fominaya, O. Renner, S. Peregrina, D. Soilan, P. A. Ceballos, A. I. Hernandez, M. Lorenzo, P. Pevarello, T. G. Granda, G. Kurz, A. Carnero, J. R. Bischoff, J. Biol. Chem. 284 (2009) 28392-28400. Combination Assay
(§2) A combination index score is calculated by the Chou and Talalay method (CalcuSyn software, Biosoft). The strength of synergy is scored using the ranking system Chou and Talalay: CI less than 0.8 indicates synergy, CI between 0.8 and 1.2 indicates additivity and CI greater than 1.2 indicates antagonism.
(§3) The EC50 values of representative combinations were also calculated. The individually measured EC50 values of the chemotherapeutic agent and the example compounds are compared to the EC50 value of the combination. The cell lines are characterised by tumor type.
(§4) Combination assays were performed as described in: • “Pim 1 kinase inhibitor ETP-45299 suppresses cellular proliferation and synergizes with PI3K inhibition”. Blanco-Aparicio, Carmen; Collazo, Ana Maria Garcia; Oyarzabal, Julen; Leal, Juan F.; Albaran, Maria Isabel; Lima, Francisco Ramos; Pequeno, Belen; Ajenjo, Nuria; Becerra, Mercedes; Alfonso, Patricia; Reymundo, Maria Isabel; Palacios, Irene; Mateos, Genoveva; Quinones, Helena; Corrionero, Ana; Carnero, Amancio; Pevarello, Paolo; Lopez, Ana Rodriguez; Fominaya, Jesus; Pastor, Joaquin; Bischoff, James R. Cancer Letters (Shannon, Ireland) 2011, 300(2), 145-153.

[1] = system: HTC116 cells (colon carcinoma); experiment: MTT in vitro cell proliferation / combination assay, HTC116; type: cell-based; conditions: HTC116, chemotherapeutic alone; read-out: Chemoth EC50
Protocol: as §2, §3

[2] = system: MV4:11 cells (leukemia, AML); experiment: MTT in vitro cell proliferation / combination assay, MV4:11; type: cell-based; conditions: for EC50: Homo sapiens, MV4:11, example compound alone
Protocol: as §2
(§5) The EC50 values of representative combinations were also calculated. The individually measured EC50 values of the chemotherapeutic agent and the example compounds are compared to the EC50 value of the combination. The cell lines are characterised by tumor type. […]

SKMel19 cells (melanoma) = experiment: MTT in vitro cell proliferation / combination assay, SKMel19; type: cell-based
Protocol: as §2, §5

PIM-1 = PIM-1 (Homo sapiens (Human), UniProt P11309); experiment: PIM-1 biochemical assay (ADP Hunter)
[3] = system: MiaPaca-2 cells (pancreas); experiment: MTT in vitro cell proliferation / combination assay, MiaPaca-2; type: cell-based; conditions: Homo sapiens, MIA PaCa-2; MiaPaca-2, chemotherapeutic alone; read-out: Chemoth EC50
Protocol: as §1, §2, §3, §4

[4] = system: Mantle cell lymphoma cells; experiment: MTT in vitro cell proliferation / combination assay, mantle cell lymphoma (cell line not given); type: cell-based; conditions: Mantle cell lymphoma (cell line cell empty)
Protocol: as §1, §2, §3, §4

[5] = system: Jeko-1 cells (Mantle cell lymphoma); experiment: MTT in vitro cell proliferation / combination assay, Jeko-1; type: cell-based; conditions: Homo sapiens; Jeko-1, chemotherapeutic alone; read-out: Chemoth EC50
Protocol: as §2, §3
Blanco-Aparicio, Carmen; Collazo, Ana Maria Garcia; Oyarzabal, Julen; Leal, Juan F.; Albaran, Maria Isabel; Lima, Francisco Ramos; Pequeno, Belen; Ajenjo, Nuria; Becerra, Mercedes; Alfonso, Patricia; Reymundo, Maria Isabel; Palacios, Irene; Mateos, Genoveva; Quinones, Helena; Corrionero, Ana; Carnero, Amancio; Pevarello, Paolo; Lopez, Ana Rodriguez; Fominaya, Jesus; Pastor, Joaquin; Bischoff, James R. Cancer Letters (Shannon, Ireland) 2011, 300(2), 145-153.

[6] = system: Bad S112 phosphorylation in H1299 cells overexpressing Pim1 (H1299Pim1); experiment: Bad S112 phosphorylation inhibition assay (In Cell ELISA); type: cell-based; conditions: read-out: EC50 BadP ELISA H1299 Pim1
Protocol: Efficacy of compounds of the invention on the inhibition of Bad phosphorylation was measured by an In Cell ELISA. EC50 values were established for the tested compounds.
Cells: H1299 cells overexpressing Pim1 (H1299Pim1)
Cells were seeded in 15000 cells per 200 μl per well into 96-well plates and incubated for 16 h at 37° C., 5% CO2. On day two, nine serial 1:2 compound dilutions were made in DMSO in a 96-well plate. The compounds were added to duplicate wells in 96-well cell plates using a FX BECKMAN robot (Beckman Coulter) and incubated at 37° C. with CO2 atmosphere. After 4 hours, relative levels of Bad S112 phosphorylation were measured in Cell ELISA using SuperSignal ELISA Femto substrate (Pierce) and read on VICTOR (Perkin Elmer). EC50 values were calculated using ActivityBase from IDBS.

PIM-2 = PIM-2 (Homo sapiens (Human), UniProt Q9P1W9); experiment: PIM-2 biochemical assay (ADP Hunter); conditions: semi-quantitative; read-out: PIM2 IC50
Excerpt: The biochemical assay to measure PIM-2 activity relies on the ADP Hunter assay kit (DiscoveRx Corp., Cat. #90-0077), that determines the amount of ADP as direct product of the kinase enzyme activity.

PIM-3 = PIM-3 (Homo sapiens (Human), UniProt Q86V86); experiment: PIM-3 biochemical assay (ADP Hunter); conditions: semi-quantitative; read-out: PIM3 IC50
[7] = MV4:11, combination with GDC-0879
[8] = MV4:11, combination with GDC-0941
[9] = MV4:11, combination with PD-0332991
[10] = SKMel19, combination with GDC-0879
[11] = SKMel19, combination with PD-0332991
[12] = read-out: PIM1 IC50, semi-quantitative
[13] = Homo sapiens, NCI-H1299, semi-quantitative

PIM-2, sequence (Q9P1W9 whole entry): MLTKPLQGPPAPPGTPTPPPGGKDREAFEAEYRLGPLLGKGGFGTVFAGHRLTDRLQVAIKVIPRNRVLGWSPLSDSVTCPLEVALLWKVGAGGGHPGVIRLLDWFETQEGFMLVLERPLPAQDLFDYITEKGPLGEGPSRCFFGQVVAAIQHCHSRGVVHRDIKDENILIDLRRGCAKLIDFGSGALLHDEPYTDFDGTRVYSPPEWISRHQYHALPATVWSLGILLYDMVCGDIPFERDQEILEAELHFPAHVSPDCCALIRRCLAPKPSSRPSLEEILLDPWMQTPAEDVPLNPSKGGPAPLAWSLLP
PIM-1, sequence (P11309 whole entry): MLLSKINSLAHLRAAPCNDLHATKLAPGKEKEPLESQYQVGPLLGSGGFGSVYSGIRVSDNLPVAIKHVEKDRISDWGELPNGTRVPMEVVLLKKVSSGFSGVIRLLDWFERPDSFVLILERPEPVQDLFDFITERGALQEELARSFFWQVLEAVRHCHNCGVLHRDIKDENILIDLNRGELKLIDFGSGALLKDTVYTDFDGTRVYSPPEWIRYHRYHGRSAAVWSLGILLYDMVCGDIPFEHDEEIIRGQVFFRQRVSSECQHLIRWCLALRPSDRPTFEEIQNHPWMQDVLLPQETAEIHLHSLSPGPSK

**Q.** With CC(=O)O[C@@]12CO[C@@H]1C[C@H](O)[C@@]1(C)C(=O)[C@H](O)C3=C(C)[C@@H](OC(=O)[C@H](O)[C@@H](NC(=O)OC(C)(C)C)c4ccccc4)C[C@](O)([C@@H](OC(=O)c4ccccc4)[C@H]21)C3(C)C [Taxotere, (2R,3S)—N-carboxy-3-phenylisoserine, N-tert-butyl ester, 13-ester with 5,20-epoxy-1,2,4,7,10,13-hexahydroxytax-11-en-9-one 4-acetate 2-benzoate, trihydrate, reference compound] as the molecule, how does the EC50 (DU145 cells (prostate)) read?
**A.** The EC50 was 0.025 µM.

**Q.** For O=C(NOC[C@H](O)CO)c1ccc(F)c(F)c1Nc1ccc(I)cc1F [PD-0325901, (R)—N-(2,3-dihydroxypropoxy)-3,4-difluoro-2-(2-fluoro-4-iodophenylamino)benz-amide, reference compound], which EC50 [1] is on record?
**A.** Its EC50 is 1.25 µM.

**Q.** CN1CCOc2c1c(NCC1CCNCC1)nn1c(-c3cccc(OC(F)(F)F)c3)nnc21 [Example 56, [6-Methyl-3-(3-trifluoromethoxy-phenyl)-7,8-dihydro-6H-9-oxa-1,2,3a,4,6-pentaaza-cyclopenta[a]naphthalen-5-yl]-piperidin-4-ylmethyl-amine] was tested. Which EC50 [2] did it give?
**A.** Its EC50 is 0.5 µM.

**Q.** And the “Combination Index (CI)” value [2, 7]?
**A.** The value was 0.604.

**Q.** What about the Synergy [2, 7] of the same molecule?
**A.** Its Synergy is “++ (0.3<C1<0.7)”.

**Q.** What about the “Combination Index (CI)” value [2, 8] of the same molecule?
**A.** Its value is 0.024.

**Q.** What about the Synergy [2, 8] of the same molecule?
**A.** The Synergy was “++++ (CI<0.1)”.

**Q.** And the “Combination Index (CI)” value [2, 9]?
**A.** The value was 0.309.

**Q.** And the Synergy [2, 9]?
**A.** Its Synergy is “++ (0.3<C1<0.7)”.

**Q.** What about the EC50 (SKMel19 cells (melanoma); Homo sapiens, SK-MEL19, SKMel19, example compound alone) of the same molecule?
**A.** Its EC50 is 6 µM.

**Q.** And the “Combination Index (CI)” value (SKMel19 cells (melanoma); [10])?
**A.** The value was 0.516.

**Q.** And the Synergy (SKMel19 cells (melanoma); [10])?
**A.** Its Synergy is “++ (0.3<C1<0.7)”.

**Q.** What about the “Combination Index (CI)” value (SKMel19 cells (melanoma); [11]) of the same molecule?
**A.** Its value is 0.568.

**Q.** And the Synergy (SKMel19 cells (melanoma); [11])?
**A.** The Synergy was “++ (0.3<C1<0.7)”.

**Q.** And the IC50 (PIM-1; [12])?
**A.** The IC50 was under 0.1 µM.

**Q.** CS(=O)(=O)CCNCc1ccc(-c2ccc3ncnc(Nc4ccc(OCc5cccc(F)c5)c(Cl)c4)c3c2)o1 [lapatinib, N-(3-chloro-4-(3-fluorobenzyloxy)phenyl)-6-(5-((2-(methylsulfonyl)ethylamino)-methyl)furan-2-yl)quinazolin-4-amine, reference compound] was tested. Which EC50 [3] did it give?
**A.** The EC50 was 20 µM.

**Q.** And the EC50 ([4]; chemotherapeutic alone, read-out: Chemoth EC50)?
**A.** Its EC50 is 5 µM.

**Q.** What about the EC50 [5] of the same molecule?
**A.** The EC50 was 5 µM.

**Q.** What about the EC50 [1] of the same molecule?
**A.** Its EC50 is 10 µM.

**Q.** What does the source list for CN1CCC(CNc2nn3c(-c4cccc(N(C)C)c4)nnc3c3c2N(C)CCO3)CC1 [Example 34, [3-(3-Dimethylamino-phenyl)-6-methyl-7,8-dihydro-6H-9-oxa-1,2,3a,4,6-pentaaza-cyclopenta[a]naphthalen-5-yl]-(1-methyl-piperidin-4-ylmethyl)-amine]?
**A.** EC50 [6, 13]: 1 to 10 µM; IC50 (PIM-2): > 1 µM; IC50 (PIM-3): 0.1 to 1 µM; IC50 (PIM-1; [12]): < 0.1 µM

**Q.** What does the source list for CC(C)NCC1CCN(c2nn3c(-c4cccc(OC(F)(F)F)c4)nnc3c3c2OCCN3C)CC1 [Example 86, Isopropyl-{1-[9-methyl-3-(3-trifluoromethoxy-phenyl)-8,9-dihydro-7H-6-oxa-1,2,3a,4,9-pentaaza-cyclopenta[a]naphthalen-5-yl]-piperidin-4-ylmethyl}-amine]?
**A.** EC50 [6, 13]: 1 to 10 µM; IC50 (PIM-2): > 1 µM; IC50 (PIM-3): 0.1 to 1 µM; IC50 (PIM-1): 0.1 to 1 µM

**Q.** COc1ccc(-c2nnc3c4c(c(N5CCC(CN)CC5)nn23)N(C)CCO4)cc1 [Example 52, C-{1-[3-(4-Methoxy-phenyl)-6-methyl-7,8-dihydro-6H-9-oxa-1,2,3a,4,6-pentaaza-cyclopenta[a]naphthalen-5-yl]-piperidin-4-yl}-methylamine] was tested. Which EC50 ([6]; semi-quantitative) did it give?
**A.** The EC50 was 1 to 10 µM.

**Q.** And the IC50 (PIM-2)?
**A.** The IC50 was over 1 µM.

**Q.** What about the IC50 (PIM-3) of the same molecule?
**A.** The IC50 was over 1 µM.

**Q.** What about the IC50 (PIM-1; [12]) of the same molecule?
**A.** Its IC50 is 0.1 to 1 µM.

**Q.** For COc1ccc(-c2nnc3c4c(c(NCc5ccc(F)cc5)nn23)N(C)CCO4)cc1 [Example 81, (4-Fluoro-benzyl)-[3-(4-methoxy-phenyl)-6-methyl-7,8-dihydro-6H-9-oxa-1,2,3a,4,6-pentaaza-cyclopenta[a]naphthalen-5-yl]-amine], which EC50 [6, 13] is on record?
**A.** The EC50 was 1 to 10 µM.

**Q.** And the IC50 (PIM-2)?
**A.** The IC50 was over 1 µM.

**Q.** And the IC50 (PIM-3)?
**A.** The IC50 was 0.1 to 1 µM.

**Q.** What about the IC50 (PIM-1; [12]) of the same molecule?
**A.** Its IC50 is under 0.1 µM.

**Q.** Which results are given for CN1CCOc2c1c(N1CCC(N(C)C)CC1)nn1c(-c3cccc(OC(F)(F)F)c3)nnc21 [Example 5, Dimethyl-{1-[6-methyl-3-(3-trifluoromethoxy-phenyl)-7,8-dihydro-6H-9-oxa-1,2,3a,4,6-pentaaza-cyclopenta[a]naphthalen-5-yl]-piperidin-4-yl}-amine]?
**A.** EC50 [6, 13]: 0.25 to 1 µM; IC50 (PIM-2): 0.1 to 1 µM; IC50 (PIM-3): 0.1 to 1 µM; IC50 (PIM-1): < 0.1 µM

**Q.** How did the EC50 [6, 13] turn out when CN1CCC(CNc2nn3c(-c4cccc(C#N)c4)nnc3c3c2N(C)CCO3)CC1 [Example 31, 3-{6-Methyl-5-[(1-methyl-piperidin-4-ylmethyl)-amino]-7,8-dihydro-6H-9-oxa-1,2,3a,4,6-pentaaza-cyclopenta[a]naphthalen-3-yl}-benzonitrile] was run?
**A.** The EC50 was 1 to 10 µM.

**Q.** And the IC50 (PIM-2)?
**A.** The IC50 was over 1 µM.

**Q.** And the IC50 (PIM-3)?
**A.** Its IC50 is 0.1 to 1 µM.

**Q.** And the IC50 (PIM-1)?
**A.** The IC50 was 0.1 to 1 µM.

**Q.** For CN1CCC(CNc2nn3c(-c4cccc(OC(F)(F)F)c4)nnc3c3c2N(C)CCO3)CC1 [Example 16, (1-Methyl-piperidin-4-ylmethyl)-[6-methyl-3-(3-trifluoromethoxy-phenyl)-7,8-dihydro-6H-9-oxa-1,2,3a,4,6-pentaaza-cyclopenta[a]naphthalen-5-yl]-amine], which EC50 [2] is on record?
**A.** The EC50 was 5 µM.

**Q.** And the “Combination Index (CI)” value [2, 8]?
**A.** The value was 0.585.

**Q.** And the Synergy [2, 8]?
**A.** Its Synergy is “++ (0.3<C1<0.7)”.

**Q.** What about the “Combination Index (CI)” value ([4]; combination with lapatinib) of the same molecule?
**A.** The value was 0.289.

**Q.** And the Synergy ([4]; combination with lapatinib)?
**A.** The Synergy was “+++ (0.1<CI<0.3)”.

**Q.** What about the EC50 ([4]; example compound alone, read-out: Example EC50) of the same molecule?
**A.** Its EC50 is 10 µM.

**Q.** And the IC50 (PIM-1; [12])?
**A.** The IC50 was under 0.1 µM.
